Measurements reported in publication PMC11840788, “3,3′-Diindolylmethane (DIM): A Molecular Scaffold for Inhibition of WWP1 and WWP2, Members of the NEDD4 Family HECT E3 Ligases” (ACS Omega, 2025).

How the values were obtained:
[1] = molecular target: WWP1 HECT domain; design: method as in PMID 31097636; conditions: microscale thermophoresis, read-out: KD (dissociation constant) WWP1; cited from earlier work
[2] = molecular target: WWP1 (Homo sapiens, UniProt Q9H0M0); experiment: STD NMR binding, WWP1; conditions: 500 μM ligand, 20 μM protein
Chain of WWP1 (Q9H0M0 546-922 limits assumed): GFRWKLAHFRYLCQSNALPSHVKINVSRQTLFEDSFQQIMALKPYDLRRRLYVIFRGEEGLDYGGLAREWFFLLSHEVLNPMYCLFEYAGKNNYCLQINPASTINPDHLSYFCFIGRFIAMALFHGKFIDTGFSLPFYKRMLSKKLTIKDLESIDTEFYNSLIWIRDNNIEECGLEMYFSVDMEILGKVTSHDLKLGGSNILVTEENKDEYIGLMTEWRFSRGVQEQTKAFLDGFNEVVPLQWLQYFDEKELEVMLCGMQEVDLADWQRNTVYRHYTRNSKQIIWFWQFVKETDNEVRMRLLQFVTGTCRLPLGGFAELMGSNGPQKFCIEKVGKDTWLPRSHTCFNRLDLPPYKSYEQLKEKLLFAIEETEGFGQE
Method: Given the similarities between WWP1 and WWP2 HECT domains, we speculated that the relatively low sensitivity of DSF may not be able to detect weak WWP2-I3C interactions and therefore opted to investigate further using STD NMR. STD NMR is a versatile ligand-based NMR approach, relying on selective saturation of the protein. This saturation is transferred to the ligand when and if the ligand binds, causing a reduction of the signal intensities. The STD intensities are calculated as the difference of the reference spectra (where selective saturation is off) minus the irradiated spectra, and they are proportional to the vicinity of the protein surface. […]
An Amicon centrifuge filter unit with a 10 kDa MW cutoff was used to exchange the protein in 25 mM d19-2,2-bis(hydroxymethyl)-2,2′,2″-nitrilotriethanol, 100 mM NaCl and 1.0 mM DTT buffer pH* 8.9 (uncorrected for the deuterium isotope effect on the pH glass electrode) in D2O. […] All the NMR experiments were performed on a Bruker Avance 800.23 MHz at 278 K. Binding epitope mappings were obtained by determining the initial slopes (STD0) calculated by performing a least-squares fitting of the following monoexponential curve: [drawing 1] where STD(tsat) is the STD intensity for a saturation time, tsat, STDmax is the maximum STD intensity and ksat is the rate constant for saturation transfer. […]

STD intensities, WWP1-I3C complex [2]: ~30%
Compound: OCc1c[nH]c2ccccc12 [Compound I3C, Indole-3-carbinol, reference compound]
Kd [1]: 450 nM
